Read-outs that look alike come from different tables or passages of the source.
Tests used:
TRPM8 = assay: Gene expression custom microarray, human skin fibroblasts (Example 1): TRPM8; assay type: cell-based; details: 24 hr; for fold induction at 10 µM: Skin fibroblast, read-out: TRPM8↑ gene expression, fold increase or decrease vs untreated cells
Text: (§1) Cell cultures: A human skin fibroblast cell culture (or cultures) was obtained through the Coriell Cell Repository from the National Institute on Aging Cell Repository (Camden, N.J.), or Promocell GmbH (Heidelberg, Germany). The initial culture was selected from the following cell lines: AG13066, AG11557, AG11796 or GM03651E. The cell lines were derived from donors as follows:
(§2) Experimental phase: When the appropriate quantity of cells had been grown, they were detached as described above, but at the final step were seeded into each well of one or more 6 well dishes. Each well received 2 ml of the cell suspension so they were seeded equally. The dishes were returned to the incubator until 85-95% confluency was reached.
(§3) It is at this stage that all wells were rinsed in PBS after aspirating the growth media. The compound(s) to be tested were previously mixed into a suitable solvent (e.g., DMSO or ethanol) that can be diluted to the desired concentration of test compound (10 μl) in the culture wells without exceeding maximum solvent concentrations and adversely effecting cell viability, and mixed with basal media. NOTE: Standard maximum levels of solvent are 0.1% for DMSO and 0.5% for ETOH. The concentration of each test compound is found in Tables 1 & 2.
(§4) Every 2 wells on the 6 well plate served as a biological replicate for the purposes of RNA isolation and genetic expression evaluations making each 6 well dish an n=3 for the test compound(s) contained in the media. Negative control plates (no test compound(s) and only basal media) were also generated. The plates were returned to the incubator for 24 hrs.
(§5) At the end of the 24 hr time period, the plates were removed from the incubator, the test media aspirated, and the cells rinsed with PBS. RNA isolation is performed using the BioRad Aurum Total RNA Mini Kit (Hercules, Calif.) per manufacturer's protocol; which is described, in brief, below: • Add 350 μl of lysis buffer to each well. Pipet multiple times to ensure thorough lysis. Add lysed cells to the collection tube. • Add 350 μl of 70% ETOH to the collection tube and mix thoroughly. • Pipet the generated lysate onto the spin column placed in a new 2 ml tube. Centrifuge for 30 sec between 8,000 and 10,000 g. • Place the spin column containing the now bound RNA, in a new 2 ml tube. Add 700 μl of low stringency wash solution to the spin column. Centrifuge for 30 sec between 8,000 and 10,000 g. Discard the flow through and replace spin column. • Add 80 μl of DNase I dilution to the spin column and incubate at room temperature for 15 minutes. • Add 700 μl of high stringency wash solution to the column and centrifuge for 30 sec between 8,000 and 10,000 g. Discard flow through. • Add 700 μl of low stringency wash solution to the column and centrifuge for 60 sec between 8,000 and 10,000 g. Discard flow through. • Centrifuge for 2 minutes to remove residual wash solution. • Transfer spin column to new 1.5 ml collection tube and add 80 μl of elution solution to the column. Allow 1 minute for saturation of the membrane and then centrifuge for 2 minutes to complete the RNA elution. • Quantify the quantity of RNA and store at −20 C° until use (no more than 1 month)
(§6) The genes tested were: • Cannabinoid receptor 1 (CB1(CNR1)) • Cannabinoid receptor 2 (CB2 (CNR2)) • Fatty acid amide hydrolase (FAAH) • Monoacylglycerol lipase (MGLL, i.e., MAGL) • Peroxisome proliferator-activated receptor gamma (PPARG) • Nuclear factor kappa-light-chain-enhancer of activated B cells (NFκβ) • Interleukin 1 Alpha (IL1alpha) • Cyclooxygenase 1 (PTGS1, i.e., COX1) • Transient receptor potential cation channel subfamily A member 1 (TRPA1) • Transient receptor potential cation channel subfamily V member 1 (TRPV1) • Transient receptor potential cation channel subfamily M member 8 (TRPM8) • Hemoglobin Subunit Beta (HBB) REFERENCE GENE • Ribosomal Protein L13a (RPL13A) REFERENCE GENE […]

TRPA1 = assay: Gene expression custom microarray, human skin fibroblasts (Example 1): TRPA1; assay type: cell-based; details: for fold induction at 10 µM: Skin fibroblast, read-out: TRPA1↑ gene expression, fold increase or decrease vs untreated cells
Text: as §1, §2, §3, §4, §5, §6

NFKB1 = assay: Gene expression custom microarray, pooled keratinocyte line (Example 3): NFKB1; assay type: cell-based, human; details: pooled keratinocytes, 20 ppm, 24 hr
Protocol: NOTE: Standard maximum levels of solvent are 0.1% for DMSO and 0.5% for ETOH.
The plates were returned to the incubator for 24 hrs.
as §5, with “RNA isolation is performed using the BioRad Aurum Total RNA Mini Kit (Hercules, Calif.) per manufacturer's protocol; which is described, in brief, below: • Add 350 μl of lysis buffer to each well.” left out

[1] = human skin fibroblasts, 10 uM, 24 hr

SMILES: CC(C)[C@]12O[C@H]1[C@@H]1O[C@]13[C@]1(O[C@H]1C[C@H]1C4=C(CC[C@@]13C)C(=O)OC4)[C@@H]2O [Triptolide]
- fold induction at 10 µM (TRPM8): 47.6
- fold induction at 10 µM (TRPA1; [1]): 26.1
- ↓NFKB1 gene expression, fold increase or decrease vs untreated cells (NFKB1): −4.2 fold

SMILES: CCCCCCCCCCCCCCCC(=O)NCCO [N-palmitoylethanolamide]
- TRPM8↑ gene expression, fold increase or decrease vs untreated cells (TRPM8; 10 uM): 5.1 fold
- TRPA1↑ gene expression, fold increase or decrease vs untreated cells (TRPA1; [1]): 8.2 fold
- ↓NFKB1 gene expression, fold increase or decrease vs untreated cells (NFKB1): −2.2 fold

SMILES: C=C(C)[C@@H]1CCC(C)=C[C@H]1c1c(O)cc(CCCCC)cc1O [CBD, cannabidiol, reference compound]
- fold induction at 10 µM (TRPM8): 6.1
- fold induction at 10 µM (TRPA1; Homo sapiens, 24 h): 2.7
- ↓NFKB1 gene expression, fold increase or decrease vs untreated cells (NFKB1): 2.5 fold
